Source: patent publication US9302999B2, “Substituted triazoles as herbicides” (E. I. DU PONT DE NEMOURS AND COMPANY, priority 2012, dated 2016)

Key:
Format in all cases: in vivo
[1] = tested on: foxtail, giant (giant foxtail, Setaria faberii); experiment: Test A pre-/postemergence: foxtail, giant; conditions: for Foxtail, Giant plant response rating: Postemergence; for Plant response rating, Foxtail, Giant: Preemergence
Method in brief: (§1)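 Visual 0–100 injury ratings (0 no effect, 100 complete control) taken about ten days after treatment, relative to untreated controls. Preemergence treatment was a directed soil spray; postemergence plants were 2–10 cm tall at one- to two-leaf stage. Soil: loam/sand blend.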

[2] = tested on: pigweed (Amaranthus retroflexus); experiment: Test A pre-/postemergence: pigweed; conditions: for Pigweed plant response rating: Postemergence; for Plant response rating, Pigweed: Preemergence
Method in brief: as §1

rice (Oryza sativa) = experiment: Test C flooded paddy test: rice; conditions: scale 0 to 100 (0 no effect, 100 complete control)
Method in brief: (§2)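 Greenhouse plants treated at the 2-leaf stage by dosing the flood water (3 cm depth, maintained) were compared with controls after 13 to 15 days and rated 0 to 100, where 100 means complete control; a dash marks no test result.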

[3] = tested on: morningglory (Ipomoea spp.); experiment: Test A pre-/postemergence: morningglory; conditions: for Morningglory plant response rating: Postemergence; for Plant response rating, Morningglory: Preemergence
Method in brief: as §1

corn (Zea mays) = experiment: Test A pre-/postemergence: corn; conditions: for Corn plant response rating: Postemergence; for Plant response rating, Corn: Preemergence
Method in brief: as §1

[4] = tested on: sedge, umbrella (small-flower umbrella sedge, Cyperus difformis); experiment: Test C flooded paddy test: sedge, umbrella; conditions: scale 0 to 100 (0 no effect, 100 complete control)
Method in brief: as §2

[5] = tested on: velvetleaf (Abutilon theophrasti); experiment: Test A pre-/postemergence: velvetleaf; conditions: for Velvetleaf plant response rating: Postemergence; for Plant response rating, Velvetleaf: Preemergence
Method in brief: as §1

[6] = tested on: wheat (Triticum aestivum); experiment: Test A pre-/postemergence: wheat; conditions: for Wheat plant response rating: Postemergence; for Plant response rating, Wheat: Preemergence
Method in brief: as §1

[7] = tested on: barnyardgrass (Echinochloa crus-galli); experiment: Test A pre-/postemergence: barnyardgrass; conditions: for Barnyardgrass plant response rating: Postemergence; for Plant response rating, Barnyardgrass: Preemergence
Method in brief: as §1

[8] = tested on: crabgrass, large (large crabgrass, Digitaria sanguinalis); experiment: Test A pre-/postemergence: crabgrass, large; conditions: for Crabgrass, Large plant response rating: Postemergence; for Plant response rating, Crabgrass, Large: Preemergence
Method in brief: as §1

[9] = tested on: ducksalad (Heteranthera limosa); experiment: Test C flooded paddy test: ducksalad; conditions: scale 0 to 100 (0 no effect, 100 complete control)
Method in brief: as §2

[10] = tested on: barnyardgrass (Echinochloa crus-galli); experiment: Test C flooded paddy test: barnyardgrass; conditions: scale 0 to 100 (0 no effect, 100 complete control)
Method in brief: as §2

[11] = 125 g ai/ha, 0 to 100 scale, 0 is no effect, 100 is complete control
[12] = 500 g ai/ha, visual rating on 0 to 100 scale (0 no effect, 100 complete control), approximately ten days
[13] = 125 g ai/ha, 0 to 100 scale (0 no effect, 100 complete control)
[14] = 500 g ai/ha, 0 to 100 scale, 0 is no effect, 100 is complete control
[15] = Flood (flooded paddy test), 62 g ai/ha, visual rating after 13 to 15 days
[16] = Flood (flooded paddy test), 125 g ai/ha, visual rating after 13 to 15 days
[17] = Flood (flooded paddy test), 250 g ai/ha, visual rating after 13 to 15 days
[18] = 125 g ai/ha, 0 to 100 scale where 0 is no effect and 100 is complete control

Cc1nn(-c2ccc(F)cc2)nc1Cn1cnc(C(F)(F)F)c1Cl [Compound 36]
20: Pigweed plant response rating [2, 12]
0: Foxtail, Giant plant response rating [1, 11] | Foxtail, Giant plant response rating [1, 12] | Plant response rating, Foxtail, Giant [1, 13] | Plant response rating, Foxtail, Giant [1, 14] | Pigweed plant response rating [2, 11] | Plant response rating, Pigweed [2, 13] | Plant response rating, Pigweed [2, 14] | Plant response rating, Rice (rice (Oryza sativa); [15]) | Plant response rating, Rice (rice (Oryza sativa); [16]) | Plant response rating, Rice (rice (Oryza sativa); [17]) | Plant response rating, Rice (rice (Oryza sativa); Flood, 31 g ai/ha) | Morningglory plant response rating [3, 11] | Morningglory plant response rating [3, 12] | Plant response rating, Morningglory [3, 13] | Plant response rating, Morningglory [3, 14] | Corn plant response rating (corn (Zea mays); [11]) | Corn plant response rating (corn (Zea mays); [12]) | Plant response rating, Corn (corn (Zea mays); [13]) | Plant response rating, Corn (corn (Zea mays); [14]) | Plant response rating, Sedge, Umbrella [4, 15] | Plant response rating, Sedge, Umbrella [4, 16] | Plant response rating, Sedge, Umbrella [4, 17] | Plant response rating, Sedge, Umbrella ([4]; Flood, 31 g ai/ha) | Velvetleaf plant response rating [5, 11] | Plant response rating, Velvetleaf [5, 13] | Plant response rating, Velvetleaf [5, 14] | Wheat plant response rating [6, 11] | Wheat plant response rating [6, 12] | Plant response rating, Wheat [6, 13] | Plant response rating, Wheat [6, 14] | Barnyardgrass plant response rating [7, 11] | Barnyardgrass plant response rating [7, 12] | Plant response rating, Barnyardgrass [7, 13] | Plant response rating, Barnyardgrass [7, 14] | Crabgrass, Large plant response rating [8, 11] | Crabgrass, Large plant response rating [8, 12] | Plant response rating, Crabgrass, Large [8, 13] | Plant response rating, Ducksalad [9, 15] | Plant response rating, Ducksalad [9, 16] | Plant response rating, Ducksalad [9, 17] | Plant response rating, Ducksalad ([9]; Flood, 31 g ai/ha) | Plant response rating, Barnyardgrass [10, 15] | Plant response rating, Barnyardgrass [10, 16] | Plant response rating, Barnyardgrass [10, 17] | Plant response rating, Barnyardgrass ([10]; Flood, 31 g ai/ha)
10: Velvetleaf plant response rating [5, 12] | Plant response rating, Crabgrass, Large [8, 14]

CCc1nn(-c2ccc(C(F)(F)F)cn2)nc1Cc1cccc(C(F)(F)F)c1 [Compound 108]
90: Foxtail, Giant plant response rating [1, 12] | Pigweed plant response rating [2, 11] | Crabgrass, Large plant response rating [8, 11] | Crabgrass, Large plant response rating [8, 12] | Plant response rating, Crabgrass, Large [8, 13]
100: Plant response rating, Foxtail, Giant [1, 14] | Pigweed plant response rating [2, 12] | Plant response rating, Pigweed [2, 14] | Morningglory plant response rating [3, 11] | Morningglory plant response rating [3, 12] | Plant response rating, Crabgrass, Large [8, 14]
40: Barnyardgrass plant response rating [7, 11]
30: Corn plant response rating (corn (Zea mays); [12]) | Wheat plant response rating [6, 12] | Plant response rating, Barnyardgrass [7, 13] | Plant response rating, Ducksalad [9, 16] | Plant response rating, Barnyardgrass [10, 17]
70: Barnyardgrass plant response rating [7, 12]
15: Plant response rating, Rice (rice (Oryza sativa); [16])
75: Plant response rating, Sedge, Umbrella [4, 16]
60: Foxtail, Giant plant response rating [1, 11] | Velvetleaf plant response rating [5, 11]
80: Plant response rating, Foxtail, Giant [1, 18] | Plant response rating, Pigweed [2, 18] | Velvetleaf plant response rating [5, 12] | Plant response rating, Barnyardgrass [7, 14]
85: Plant response rating, Sedge, Umbrella [4, 17]
20: Plant response rating, Rice (rice (Oryza sativa); [17]) | Plant response rating, Morningglory [3, 14] | Corn plant response rating (corn (Zea mays); [11]) | Plant response rating, Sedge, Umbrella ([4]; Flood, 31 g ai/ha) | Plant response rating, Sedge, Umbrella ([4]; Flood, 62 g ai/ha) | Plant response rating, Velvetleaf [5, 14] | Wheat plant response rating [6, 11] | Plant response rating, Barnyardgrass [10, 16]
0: Plant response rating, Rice (rice (Oryza sativa); Flood, 31 g ai/ha) | Plant response rating, Rice (rice (Oryza sativa); Flood, 62 g ai/ha) | Plant response rating, Morningglory [3, 18] | Plant response rating, Corn (corn (Zea mays); [13]) | Plant response rating, Corn (corn (Zea mays); [14]) | Plant response rating, Velvetleaf [5, 18] | Plant response rating, Wheat [6, 18] | Plant response rating, Wheat [6, 14] | Plant response rating, Ducksalad ([9]; Flood, 31 g ai/ha) | Plant response rating, Ducksalad ([9]; Flood, 62 g ai/ha) | Plant response rating, Barnyardgrass ([10]; Flood, 31 g ai/ha) | Plant response rating, Barnyardgrass ([10]; Flood, 62 g ai/ha)
45: Plant response rating, Ducksalad [9, 17]
